Structures are written as SMILES.

For orientation: melting point means the temperature of the solid-liquid transition.

On to `COc1ccc(OC)c(-c2cc3c(Nc4cccc(Cl)c4)ncnc3[nH]2)c1`, for which the melting point fell in the range of 267 to 268 °C.
On to `CCCCN1CCC(CNC(=O)c2cc(Cl)c(NC)n3ccnc23)CC1`, for which the melting point is 148 °C.
In turn, `Cn1c(=O)c(S(C)(=O)=O)c(N2CCN(C(=O)c3cccs3)CC2)c2ccccc21` registered a melting point of 224 °C.
The same measure for `CNC(=O)c1ccccc1Nc1nc(Nc2ccc3c(c2)CCC(=O)CC3)ncc1Cl`: 262 to 269 °C.
In the case of `CCCCCCCCCCCCCCCCCCOc1cccc2c(O)cccc12` it was 90 to 92 °C.
The same measure for `CCOC(=O)c1cc(C(=O)OCC)c(N)[nH]1`: 147 to 149 °C; for `CN1CCN(c2cc3c(cc2F)C(=O)c2nc4ccccc4c(=O)n2-3)CC1`: 257 to 258 °C.
For the molecule `CCNc1nc(-c2ccc(NC(=O)NCc3cccnc3)cc2)ccc1C(=O)NCCN1CCCCC1`, the melting point was in the range of 164 to 165 °C.
Regarding `C#CCn1cc(F)c(SC)nc1=O`, the melting point was in the range of 101 to 102 °C.
The same measure for `CCCn1c(CCOC)nc2c(N)nc3cc(OCCCNC(=O)OC(C)(C)C)ccc3c21`: 134 to 135 °C; for `CCN(CC)c1ccc2cc(N)c(=O)oc2c1`: 85 to 87 °C.
Consider `C[C@]12CC(=O)[C@H]3[C@@H](CCC4=CC(=O)CC[C@@H]43)[C@@H]1CCC2=O`, for which the melting point is 204 to 209 °C.
In the case of `CC(=O)c1ccc2c(c1)C=CC(=CCl)CO2` it was 85 to 90 °C; in that of `S=C(Nc1ccc(Cl)cc1)NC12CC3CC(CC(C3)C1)C2`, 185 °C.
`CC(=O)Oc1ccc2cccc(O)c2n1`: the melting point fell in the range of 240 to 241 °C.
The same measure for `Cc1c(C(=O)Nc2ccc(N3CCC(N4CCOCC4)CC3)c(C#N)c2)cnn1-c1cccc(Cl)c1`: 210 °C.
The molecule `S=c1[nH]c2c(n1-c1ccccn1)CCCC2` gave a melting point of 203 to 204 °C.
In the case of `CCOP(=O)(/C=C/c1cn(-c2ccccc2)nc1OCc1ccc(OCc2nc(-c3ccco3)oc2C)c(C(=O)OC)c1)OCC` it was 92 to 93 °C.
The same measure for `Cc1ccc(Nc2nnc(Cc3ccncc3)c3ccccc23)cc1`: 152 to 153 °C.
In the case of `CC1(CCl)C(C(=O)OCC(Cl)(Cl)Cl)N2C(=O)C(NC(=O)Cc3ccccc3)C2S1=O` (stereo not drawn) it was 130 to 131 °C.
`COc1cc(OC)nc(Oc2cccc3c2C(=O)OC3OC(C)=O)n1` (stereo not drawn) came in with a melting point of 119 to 120 °C.
The same measure for `CCc1nc2c(Cl)nc(C)cc2n1-c1ccc(CCNC(=O)NS(=O)(=O)c2ccc(C)cc2)cc1`: 163 °C.
The same measure for `O=C(NCc1cccc(-c2nc(=O)c3ccccc3s2)n1)c1cccs1`: 208 to 209 °C; for `COc1cc2c(-c3ccnc(NN)c3)c(CO)c(CO)cc2cc1OCc1ccccc1`: 155 to 157 °C.
`CCC1=CC(=O)C2(C)CCC3c4ccc(OC)cc4CCC3C12` (stereo not drawn) showed a melting point of 103 to 106 °C.
In the case of `CC(C)=Cc1ccc(C(C)C(=O)O)cc1` (stereo not drawn) it was 53 to 54 °C.
In the case of `O=C(Nc1ccc(O)cc1)C(=O)Nc1ccc(O)cc1` it was greater than 250 °C; in that of `CCCCCCCCCCCCCCC(=O)NC1CC(C)(C)N(CC#N)C(C)(C)C1`, 101 °C.
In the case of `C[C@H]1CCCC(C)(C)[C@@H]1C(=O)c1ccoc1` it was 114 to 116 °C; in that of `CCCCCN1OCCN(c2ccc(Cl)c(Cl)c2)C1=O`, less than 40 °C.
Take `COc1ccc(C(Cc2cnccn2)c2ccccc2)cc1OC1CCCC1` (stereo not drawn): the melting point lay within 71.5 to 72 °C.
Regarding `NC(=O)C(Cc1ccccc1)NC(=O)Nc1n[nH]c(=S)s1` (stereo not drawn), the melting point was 175 to 177 °C.
The same measure for `COc1cc(C)nc(NC(=O)NS(=O)(=O)c2ccccc2OC(F)(F)F)n1`: 162 °C; for `CC(C)N(CCOc1ccc(CC2SC(=O)NC2=O)cc1)c1nc2ccccc2o1` (stereo not drawn): 66 °C; for `C1=C(c2ccc(-n3ccnc3)cc2)CCNC1`: 150 to 153 °C.
In turn, `O=C(Nc1cccc(Cl)c1)O[C@H]1COC(c2ccccc2)=N[C@@H]1c1ccccc1` (racemic) showed a melting point of 160 °C.
The same measure for `CC(=O)SCC(Cc1ccccc1)C(=O)Nc1cc2ccccc2cc1C(=O)O` (stereo not drawn): 138 to 141 °C; for `O=C(CNS(=O)(=O)c1ccc(N2CCC(c3ccccc3)CC2)cc1)NO`: 164 to 166 °C; for `O=C1c2cccc3cccc(c23)C1Br` (stereo not drawn): 100 to 105 °C.
Consider `CNC(=O)c1ccc([C@@H]2C[C@H]3C=C(c4c[nH]c(-c5ccc(F)c(Cl)c5)c4-c4ccncc4)CCN3C2)cc1`, for which the melting point was in the range of 176 to 178 °C.
In the case of `CS(=O)(=O)c1ccc(-c2c(-c3ccccc3)nc3sccn23)cc1` it was 190 to 192 °C; in that of `CC(C)(C)N1C(O)c2cccc(Cl)c2S1(=O)=O` (stereo not drawn), 139 to 141 °C.
For `Nc1ccc(O)c(C(=O)Nc2cccc3[nH]ccc23)c1`, the melting point was greater than 260 °C.
In the case of `CC(=O)C1C2=CCC3C(CCC4(C)C(O)C(O)CC34)C2(C)CCC1O` (stereo not drawn) it was 152 to 153 °C.
`CCCCC/C(=C\C=C\C(=S)NCCCCc1cccnc1)c1ccc(OC)cc1` returned a melting point of 121 to 122 °C.
The same measure for `COC(=N)c1cc(Oc2ccc(C(F)(F)F)cc2Cl)ccc1[N+](=O)[O-]`: 46 °C.
In turn, `CN(C)Cc1nnc(CO)n1-c1ccc(Cl)cc1C(=O)c1ccccc1` registered a melting point of 138 to 141 °C.
In the case of `COC1CN(C(=O)c2cc(-c3ccccc3)c(=O)n3c2-c2cc(Cl)ccc2CN3)C1` it was 238 to 239 °C; in that of `CCN(CC)CCNC(=O)c1cccc2nc3cc(Br)ccc3nc12`, 107 to 109 °C.
In the case of `COC(=O)Nc1ccccc1CSc1ncc(C(F)(F)F)cc1Cl` it was 111 to 113 °C.
The same measure for `c1ccc(COc2ccc3ccc(OCc4ccccc4)cc3c2)cc1`: 161 °C; for `CCCC(=O)C1=C(O)CC(c2cccc3c2OCO3)CC1=O` (stereo not drawn): 81 to 82 °C.
On to `CC(C)(C)C(=O)OCn1nc2ccc(NCCCN3CCC(OC(c4ccccc4)c4ccccc4)CC3)nn2c1=O`, for which the melting point is 168 to 171 °C.
`COc1ccc2c3c(c4cc(OC)c(OC)cc4c2c1)C[C@H](CO)N(C(=O)OC(C)(C)C)C3`: the melting point is 105 to 107 °C.
In the case of `COC(=O)CCCc1ccc(S(=O)(=O)Nc2ccc(Cl)cc2)cn1`, the melting point is 80 to 81 °C.
The molecule `CC(=O)NCC1CN(c2ccc(N3CC4CCCN(C(=O)OCc5ccccc5)C4C3)c(F)c2)C(=O)O1` (stereo not drawn) registered a melting point of 74 to 76 °C.
The molecule `COC(=O)c1nn2c(C)csc2c1SSc1c(C(=O)OC)nn2c(C)csc12` registered a melting point of 193 to 194 °C.
Consider `CC(=O)OC1CSC(Oc2ccc(C(C)=O)nc2)C(OC(C)=O)C1OC(C)=O` (stereo not drawn), for which the melting point was 149 °C.
The same measure for `CCN(CC)C(=O)N1SN(C(C)C)C(=O)c2ccccc21`: 103 to 104 °C; for `CN(C)n1cc(C(=O)O)c(=O)c2cc(F)c(Cl)cc21`: 255 to 256 °C.
In the case of `COc1cc(Nc2c(C#N)cnc3cc(/C=C/n4nccn4)sc23)c(Cl)cc1Cl` it was 315 to 316 °C; in that of `COc1cccc(C(=O)CC(=O)c2cc(NC(C)=O)ccc2O)c1`, 72 to 73 °C.
The same measure for `Cc1ccc(OCc2sccc2S(=O)(=O)Nc2onc(C)c2Br)cc1`: 128 to 130 °C.
Molecule `COc1ccc(Cc2ccc3c(c2)OCO3)cc1C` came in with a melting point of 95 °C.
In the case of `Cc1noc(NS(=O)(=O)c2ccsc2NC(=O)Nc2sccc2S(=O)(=O)Nc2onc(C)c2C)c1C` it was 112 to 114 °C; in that of `CC#CCOc1ccc(S(=O)(=O)C(C(=O)NO)C2CCN(Cc3ccc(OC)cc3)CC2)cc1` (stereo not drawn), 138 °C.
`COCOc1cc(F)ccc1-c1cc(-c2cccc(NC(=O)CN(C)C)c2)c(C#N)c(NC(=O)c2ccco2)n1` displayed a melting point of 168 to 169 °C.
The same measure for `CNS(=O)(=O)c1cc(C(=O)NCC2CCCN2CC2CC2)c(OC)cc1N` (stereo not drawn): 173 to 174 °C; for `COc1ccc(-c2c3cccc(C(F)(F)F)c3nn2CC(C)C)c(OC)c1`: 111 to 112 °C; for `CCOC(=O)c1nnc(-c2cc3cccc(N(C)S(=O)(=O)c4cccs4)c3[nH]2)s1`: 176 to 177 °C.
The same measure for `CCNC(=O)n1nc(Oc2ncc(Cl)cc2Cl)cc1C`: 74 to 76 °C; for `COc1ccc(C2=CCC(N3CCN(Cc4ccccc4)CC3)CC2)cc1` (stereo not drawn): 126 to 128 °C.
In the case of `Cc1oc(-c2ccccc2)nc1COc1ccccc1COc1ccccc1CC(=O)O` it was 145 to 146 °C; in that of `NN1CCC2(CC1)OC(c1ccccc1)c1ccccc12` (stereo not drawn), 143 to 145 °C.
For `COC(=O)C(C)(C)C(=O)Oc1ccc(C(=O)c2ccccc2)cc1`, the melting point lay within 121 to 122 °C.
The same measure for `NC1CCCCC1C(O)c1ccccc1` (stereo not drawn): 77 to 85 °C.
In the case of `COc1ccc(-c2snnc2-c2ccccc2)cc1` it was 56.5 to 58 °C; in that of `CC1Nc2ccc(-c3ccc(C#N)s3)cc2C(C)(C)O1` (stereo not drawn), 172 to 173 °C.
On to `COc1cccc2c1NCn1cc(CO)cc1-2`, for which the melting point lay in the range of 137 to 138 °C.
In the case of `CN(C)C=CC(=O)c1cccnc1` it was 66 to 67 °C.
The molecule `CC#CCOc1ccc(S(=O)(=O)N(C)C(CCCSc2ccc(Cl)cc2)C(=O)NO)cc1` (stereo not drawn) yielded a melting point of 144 to 146 °C.
In the case of `CCOC(=O)Cn1c2c([nH]c(=O)c1=O)CCC1=C2C=C([N+](=O)[O-])CC1` it was 217 to 219 °C; in that of `CCOC(=O)C1CNc2cc(NS(C)(=O)=O)ccc2O1` (stereo not drawn), 149 to 151 °C; in that of `O=C1CCCC(=O)N1c1cc(Br)cc(Br)c1`, 152 to 154 °C.
The same measure for `CS(=O)(=O)Nc1ccc2ccccc2c1-c1c(P(=O)(c2ccccc2)c2ccccc2)ccc2ccccc12`: 282 °C.
In the case of `Cc1cc(C)n(-c2nc(Nc3ccc(Cl)c(Cl)c3)c3ccccc3n2)n1` it was 224 to 226 °C.
The molecule `CC(C)(C)OC(=O)CCC(CCC(=O)OC(C)(C)C)(CCC(=O)OC(C)(C)C)NC(=O)C=C=C[N+](=O)[O-]` had a melting point of 140 to 141 °C.
The same measure for `N#Cc1cccc(NC(=O)c2ccc(-n3nc(C(F)(F)F)cc3C(F)(F)F)cc2)c1`: 195 to 196 °C.

The record behind these values is a melting point compilation (Tetko et al.; mined from patent text by program, amines drawn as free bases though some values may be those of a salt).
